Values of other authors, collected in patent US9555001B2, “Pharmaceutical composition and uses thereof” (Boehringer Ingelheim International GmbH, priority 2012, dated 2017).

Conditions: crystalline form described in WO 2006/117359

physico-chemical stability: physico-chemically stable | solubility: good solubility properties
Compound: OC[C@H]1O[C@@H](c2ccc(Cl)c(Cc3ccc(O[C@H]4CCOC4)cc3)c2)[C@H](O)[C@@H](O)[C@@H]1O [Compound “A”, 1-chloro-4-(β-D-glucopyranos-1-yl)-2-[4-((S)-tetrahydrofuran-3-yloxy)-benzyl]-benzene]
